In patent publication US20140348819A1, “Methods of Treating Cancer” (Dana-Farber Cancer Institute, Inc., priority 2011, published 2014):

System: six V600E BRAF melanoma cell lines
Assay: Screening of recombinant RTK ligands for ability to confer resistance to BRAFi (PLX4720) or MEKi (PD184352) (Table 4)
Format: cell-based, human
Set-up: ability of recombinant RTK ligand to confer resistance / ability of recombinant RTK ligand to confer resistance (screening value): scale not given here
Protocol: HGF is the only one that can substantially confer drug resistance to the cell lines.
The complexity of the tumor microenvironment is much greater than an in vitro co-culture system. Therefore, the inventors explored whether the activation of other RTKs could result in a similar resistance as that observed with the activation of MET. To this end, six V600E BRAF melanoma cell lines were tested for their resistance to either BRAFi (PLX4720) or MEKi (PD184352) after the addition of 22 RTK ligands that have the potential of activating almost all known RTKs. […] The activation of a selected subset of these RTKs was confirmed by western blotting and by high throughput tyrosine kinase phosphorylation profiling.

## Collagen II
A2058, PD184352 - 1 uM, ligand 6.25 ng/ml
  ability of recombinant RTK ligand to confer resistance: 0.97
A2058, PD184352 - 1 uM, ligand 25 ng/ml
  ability of recombinant RTK ligand to confer resistance: 0.97
A2058, PD184352 - 1 uM, ligand 100 ng/ml
  ability of recombinant RTK ligand to confer resistance: 0.99
A2058, PD184352 - 1 uM, ligand 400 ng/ml
  ability of recombinant RTK ligand to confer resistance: 1.00
A2058, PD184352 - 1 uM, ligand 1600 ng/ml
  ability of recombinant RTK ligand to confer resistance: 0.92
A2058, PLX4720 - 2 uM, ligand 6.25 ng/ml
  ability of recombinant RTK ligand to confer resistance: 0.95
A2058, PLX4720 - 2 uM, ligand 25 ng/ml
  ability of recombinant RTK ligand to confer resistance: 0.99
A2058, PLX4720 - 2 uM, ligand 100 ng/ml
  ability of recombinant RTK ligand to confer resistance: 0.96
A2058, PLX4720 - 2 uM, ligand 400 ng/ml
  ability of recombinant RTK ligand to confer resistance: 0.95
A2058, PLX4720 - 2 uM, ligand 1600 ng/ml
  ability of recombinant RTK ligand to confer resistance: 0.96
C32, PD184352 - 1 uM, ligand 6.25 ng/ml
  ability of recombinant RTK ligand to confer resistance: 0.99
C32, PD184352 - 1 uM, ligand 25 ng/ml
  ability of recombinant RTK ligand to confer resistance: 1.03
C32, PD184352 - 1 uM, ligand 100 ng/ml
  ability of recombinant RTK ligand to confer resistance: 1.06
C32, PD184352 - 1 uM, ligand 400 ng/ml
  ability of recombinant RTK ligand to confer resistance: 1.18
C32, PD184352 - 1 uM, ligand 1600 ng/ml
  ability of recombinant RTK ligand to confer resistance: 1.14
C32, PLX4720 - 2 uM, ligand 6.25 ng/ml
  ability of recombinant RTK ligand to confer resistance: 1.03
C32, PLX4720 - 2 uM, ligand 25 ng/ml
  ability of recombinant RTK ligand to confer resistance: 0.99
C32, PLX4720 - 2 uM, ligand 100 ng/ml
  ability of recombinant RTK ligand to confer resistance: 0.99
C32, PLX4720 - 2 uM, ligand 400 ng/ml
  ability of recombinant RTK ligand to confer resistance: 1.00
C32, PLX4720 - 2 uM, ligand 1600 ng/ml
  ability of recombinant RTK ligand to confer resistance: 1.02
Colo 829, PD184352 - 1 uM, ligand 6.25 ng/ml
  ability of recombinant RTK ligand to confer resistance: 0.95
Colo 829, PD184352 - 1 uM, ligand 25 ng/ml
  ability of recombinant RTK ligand to confer resistance: 1.02
Colo 829, PD184352 - 1 uM, ligand 100 ng/ml
  ability of recombinant RTK ligand to confer resistance: 1.04
Colo 829, PD184352 - 1 uM, ligand 400 ng/ml
  ability of recombinant RTK ligand to confer resistance: 1.02
Colo 829, PD184352 - 1 uM, ligand 1600 ng/ml
  ability of recombinant RTK ligand to confer resistance: 0.99
Colo 829, PLX4720 - 2 uM, ligand 6.25 ng/ml
  ability of recombinant RTK ligand to confer resistance: 1.00
Colo 829, PLX4720 - 2 uM, ligand 25 ng/ml
  ability of recombinant RTK ligand to confer resistance: 1.13
Colo 829, PLX4720 - 2 uM, ligand 100 ng/ml
  ability of recombinant RTK ligand to confer resistance: 1.06
Colo 829, PLX4720 - 2 uM, ligand 400 ng/ml
  ability of recombinant RTK ligand to confer resistance: 1.02
Colo 829, PLX4720 - 2 uM, ligand 1600 ng/ml
  ability of recombinant RTK ligand to confer resistance: 0.98
G-361, PD184352 - 1 uM, ligand 6.25 ng/ml
  ability of recombinant RTK ligand to confer resistance: 0.96
G-361, PD184352 - 1 uM, ligand 25 ng/ml
  ability of recombinant RTK ligand to confer resistance: 1.00
G-361, PD184352 - 1 uM, ligand 100 ng/ml
  ability of recombinant RTK ligand to confer resistance: 0.96
G-361, PD184352 - 1 uM, ligand 400 ng/ml
  ability of recombinant RTK ligand to confer resistance: 1.01
G-361, PD184352 - 1 uM, ligand 1600 ng/ml
  ability of recombinant RTK ligand to confer resistance: 1.03
G-361, PLX4720 - 2 uM, ligand 6.25 ng/ml
  ability of recombinant RTK ligand to confer resistance: 0.97
G-361, PLX4720 - 2 uM, ligand 25 ng/ml
  ability of recombinant RTK ligand to confer resistance: 0.91
G-361, PLX4720 - 2 uM, ligand 100 ng/ml
  ability of recombinant RTK ligand to confer resistance: 0.92
G-361, PLX4720 - 2 uM, ligand 400 ng/ml
  ability of recombinant RTK ligand to confer resistance: 0.96
G-361, PLX4720 - 2 uM, ligand 1600 ng/ml
  ability of recombinant RTK ligand to confer resistance: 0.92
SK-MEL-5, PD184352 - 1 uM, ligand 6.25 ng/ml
  ability of recombinant RTK ligand to confer resistance: 0.96
SK-MEL-5, PD184352 - 1 uM, ligand 25 ng/ml
  ability of recombinant RTK ligand to confer resistance: 0.92
SK-MEL-5, PD184352 - 1 uM, ligand 100 ng/ml
  ability of recombinant RTK ligand to confer resistance: 0.94
SK-MEL-5, PD184352 - 1 uM, ligand 400 ng/ml
  ability of recombinant RTK ligand to confer resistance: 0.99
SK-MEL-5, PD184352 - 1 uM, ligand 1600 ng/ml
  ability of recombinant RTK ligand to confer resistance: 0.94
SK-MEL-5, PLX4720 - 2 uM, ligand 6.25 ng/ml
  ability of recombinant RTK ligand to confer resistance: 1.03
SK-MEL-5, PLX4720 - 2 uM, ligand 25 ng/ml
  ability of recombinant RTK ligand to confer resistance: 1.10
SK-MEL-5, PLX4720 - 2 uM, ligand 100 ng/ml
  ability of recombinant RTK ligand to confer resistance: 1.06
SK-MEL-5, PLX4720 - 2 uM, ligand 400 ng/ml
  ability of recombinant RTK ligand to confer resistance: 1.00
SK-MEL-5, PLX4720 - 2 uM, ligand 1600 ng/ml
  ability of recombinant RTK ligand to confer resistance: 1.08
SK-MEL-28, PD184352 - 1 uM, ligand 6.25 ng/ml
  ability of recombinant RTK ligand to confer resistance: 0.98
SK-MEL-28, PD184352 - 1 uM, ligand 25 ng/ml
  ability of recombinant RTK ligand to confer resistance: 1.10
SK-MEL-28, PD184352 - 1 uM, ligand 100 ng/ml
  ability of recombinant RTK ligand to confer resistance: 0.98
SK-MEL-28, PD184352 - 1 uM, ligand 400 ng/ml
  ability of recombinant RTK ligand to confer resistance: 0.94
SK-MEL-28, PD184352 - 1 uM, ligand 1600 ng/ml
  ability of recombinant RTK ligand to confer resistance: 1.07
SK-MEL-28, PLX4720 - 2 uM, ligand 6.25 ng/ml
  ability of recombinant RTK ligand to confer resistance: 0.94
SK-MEL-28, PLX4720 - 2 uM, ligand 25 ng/ml
  ability of recombinant RTK ligand to confer resistance: 1.12
SK-MEL-28, PLX4720 - 2 uM, ligand 100 ng/ml
  ability of recombinant RTK ligand to confer resistance: 0.98
SK-MEL-28, PLX4720 - 2 uM, ligand 400 ng/ml
  ability of recombinant RTK ligand to confer resistance: 0.95
SK-MEL-28, PLX4720 - 2 uM, ligand 1600 ng/ml
  ability of recombinant RTK ligand to confer resistance: 0.96
